According to ChEMBL document CHEMBL1201862, “PubChem BioAssay data set” (2004):
The source made the active and inactive calls.

Key:
[1] = A549 cell cytotoxicity, dose response, cytotoxicity control, plate reader, cherry-pick, antagonist series (AID 743412); assay type: functional, cell-based
[2] = target: T1, Luciferin 4-monooxygenase (Photinus pyralis, UniProt P08659); assay: Counter Screen for Luciferase-based Assay Positives. [Related pubchem assays: 620, 618, 411 ]
[3] = blockade of melanocortin 4 receptor signaling – cell-based, plate reader, cherry pick, counter-screen for LGR2 antagonist project, dose response (AID 743444); assay type: functional;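 further: transfected HEK 293 cells stimulated with alpha-MSH peptide; potency of inhibitors of the alpha-MSH evoked signal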
[4] = blockers of bursicon-stimulated LGR2 cAMP reporter – cell-based, HEK293, CRE-luciferase reporter, cherry pick, set 2, dose response (AID 743343); assay type: functional;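 further: transfected cells were stimulated with diluted bursicon conditioned medium after compound addition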
HT-1080 = assay: HT1080 cell viability loss – fluorescence readout (AID 620); assay type: functional, cell-based; settings: Homo sapiens
[5] = viability loss in HEK293 cells – cell-based, plate reader, cherry-picked samples, cytotoxicity control, dose response (AID 743446); assay type: functional
[6] = Luminescence Cell-Based Dose Retest to Confirm Inhibitors of Cancer Stem Cells. [Related pubchem assays (depositor defined):AID2717, AID2721]; assay type: functional; settings: Homo sapiens
[7] = antiviral protection against BTV-induced cell death – arbovirus, BSR cells, confirmation (AID 1250); assay type: functional;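 further: protection from viral cytopathic effect measured as cell viability by ATP luminescence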
Estrogen receptor = target: T2, Estrogen receptor (Homo sapiens, UniProt P03372); assay: ERα coactivator recruitment enhancers – biochemical, TR-FRET, ERα LBD, dose response (AID 737)
T2 sequence (P03372 whole entry): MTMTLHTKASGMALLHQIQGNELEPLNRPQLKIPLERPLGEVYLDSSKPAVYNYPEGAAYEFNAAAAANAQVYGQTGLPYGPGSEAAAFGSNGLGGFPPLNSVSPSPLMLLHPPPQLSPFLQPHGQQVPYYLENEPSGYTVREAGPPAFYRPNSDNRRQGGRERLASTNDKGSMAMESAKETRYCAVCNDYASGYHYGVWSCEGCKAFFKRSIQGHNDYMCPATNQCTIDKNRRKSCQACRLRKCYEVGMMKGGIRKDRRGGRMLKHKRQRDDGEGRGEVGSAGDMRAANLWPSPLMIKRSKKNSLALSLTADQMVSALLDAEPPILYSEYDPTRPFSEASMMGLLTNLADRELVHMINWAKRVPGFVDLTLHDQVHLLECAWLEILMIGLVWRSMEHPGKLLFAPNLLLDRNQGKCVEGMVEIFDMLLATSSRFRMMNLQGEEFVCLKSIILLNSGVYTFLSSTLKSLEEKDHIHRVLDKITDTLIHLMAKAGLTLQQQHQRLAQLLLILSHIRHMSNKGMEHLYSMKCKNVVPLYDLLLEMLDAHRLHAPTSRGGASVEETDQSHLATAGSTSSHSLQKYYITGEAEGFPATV

[8] = target: T3, Endoribonuclease toxin MazF (Escherichia coli K-12, UniProt P0AE70); assay: activation of MazEF endoribonuclease cleavage – biochemical, fluorescence, single-stranded RNA substrate, uHTS hits, dose response (AID 588481); assay type: functional
T3 sequence (P0AE70 whole entry): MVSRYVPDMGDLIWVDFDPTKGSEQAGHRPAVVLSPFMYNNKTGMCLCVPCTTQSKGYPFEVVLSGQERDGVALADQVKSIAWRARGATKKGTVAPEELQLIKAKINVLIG

[9] = target: T3, Endoribonuclease toxin MazF; assay: substrate-only fluorescence increase artefacts – biochemical, single-stranded RNase substrate, counter-screen for MazEF activator project, dose response (AID 588502); assay type: functional
[10] = target: Peroxisome proliferator-activated receptor gamma/Nuclear receptor coactivator 2 (Homo sapiens, UniProt P37231); assay: TR-FRET dose response biochemical High Throughput Screening assay for agonists of the steroid receptor coactivator 2 (SRC-2) recruitment by the peroxisome proliferator-activated receptor gamma (PPAR gamma): non-selective agonists. [Related pubchem assays: 1297, 1032 ]; assay type: functional
[11] = T. cruzi infection blockers in NIH3T3 cells – beta-gal luminescence, NIH3T3 host cells, confirmation (AID 2630); assay type: functional, cell-based; settings: Mus musculus
[12] = Trypanosoma cruzi growth suppression in host cells – NIH3T3 host cells, beta-gal luminescence, confirmation (AID 2044); assay type: functional, cell-based;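 further: intracellular parasites grown in NIH/3T3 mouse fibroblasts as host cells; luminescent beta-galactosidase reporter signal from transgenic T. cruzi replicating inside host cells; inhibitors lower the luminescence signal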
[13] = target: Peroxisome proliferator-activated receptor gamma/Nuclear receptor coactivator 1 (Homo sapiens, UniProt P37231); assay: TR-FRET dose response biochemical High Throughput Screening assay for agonists of the steroid receptor coactivator 1 (SRC-1) recruitment by the peroxisome proliferator-activated receptor gamma (PPAR gamma): non-selective agonists. [Related pubchem assays (depositor defined):AID1300, AID1808, AID504735, AID631]; assay type: protein assay
[14] = NIH3T3 cell viability loss – ATP luminescence, mouse fibroblasts, counter-screen, dose response (AID 2010); assay type: functional, cell-based;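 further: cells exposed to compound for about 90 hours before reading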
[15] = Luminescence Cell-Based/Microorganism Confirmation at Dose of Inhibitors of Trypanosoma cruzi Infection. [Related pubchem assays: 1885, 1968 ]; assay type: functional
[16] = Luminescence Cell-Based Secondary HTS screen to identify cytotoxic compounds of NIH3T3 cells. [Related pubchem assays: 1885, 1968 ]; assay type: functional
[17] = target: Peroxisome proliferator-activated receptor gamma/Nuclear receptor coactivator 3 (Homo sapiens, UniProt P37231); assay: TR-FRET dose response biochemical High Throughput Screening assay for agonists of the steroid receptor coactivator 3 (SRC-3) recruitment by the peroxisome proliferator-activated receptor gamma (PPAR gamma): non-selective agonists. [Related pubchem assays: 1301 (Confirmation screen.), 1048 (Primary screen.)]; assay type: functional
[18] = target: Neuropeptide Y receptor type 2 (Homo sapiens, UniProt P49146); assay: IC50 for human NPY-Y2 blockade – cell-based, counter-screen for NPY-Y1 antagonist project, dose response (AID 1278); assay type: functional
[19] = target: Neuropeptide Y receptor type 1 (Homo sapiens, UniProt P25929); assay: IC50 of human NPY-Y1 blockers – cell-based, dose response (AID 1277); assay type: functional
BJ [20] = assay: cells; assay type: functional, cell-based; settings: Homo sapiens
[21] = target: T1, Luciferin 4-monooxygenase; assay: inhibition of purified Photinus pyralis luciferase – biochemical, luminescence, dose response (AID 1891)
BJ [22] = assay: growth inhibition of engineered Ras-driven BJ cells – cell-based, alamar blue fluorescence, cherrypicked samples, dose response (AID 2631); assay type: functional; settings: Homo sapiens;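 further: confirmatory dose-response assay in RAS-dependent BJ fibroblasts engineered with TERT, LT and ST, with cytotoxicity read by fluorescence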
[23] = target: T4, Oxysterols receptor LXR-beta (Homo sapiens, UniProt P55055); assay type: functional, cell-based;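 further: agonist activity at LXR measured by a cell-based luminescence readout across a dose range, run as a counterscreen for daf-12 agonists; HEK293 cells with Gal4-LXR fusion and GAL4-driven luciferase reporter; potency for activation of Gal4-LXR reporter so compounds are agonists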
T4 sequence (P55055 whole entry): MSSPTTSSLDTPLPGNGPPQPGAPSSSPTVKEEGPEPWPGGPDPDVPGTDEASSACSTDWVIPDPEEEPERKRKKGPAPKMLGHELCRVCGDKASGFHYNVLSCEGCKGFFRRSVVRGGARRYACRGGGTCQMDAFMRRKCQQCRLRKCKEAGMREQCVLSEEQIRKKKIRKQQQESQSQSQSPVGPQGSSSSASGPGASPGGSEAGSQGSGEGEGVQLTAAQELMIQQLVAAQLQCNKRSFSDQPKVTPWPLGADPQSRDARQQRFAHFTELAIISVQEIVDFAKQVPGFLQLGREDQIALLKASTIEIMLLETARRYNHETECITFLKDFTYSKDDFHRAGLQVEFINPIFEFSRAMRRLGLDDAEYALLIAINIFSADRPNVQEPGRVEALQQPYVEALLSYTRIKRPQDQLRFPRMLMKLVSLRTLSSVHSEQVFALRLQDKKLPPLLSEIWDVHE

BJ [24] = assay: BJ-TERT-LT-ST fibroblast viability loss – cell-based, RAS-independent, luminescence, dose response (AID 1935); assay type: functional; settings: Homo sapiens;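 further: BJ fibroblasts immortalized with TERT plus LT and ST oncogenes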
[25] = DRD fibroblast viability loss – cell-based, non-viral oncogenic, luminescence, dose response (AID 1934); assay type: functional; settings: Homo sapiens
BJ [26] = assay: BJ-TERT fibroblast viability loss – cell-based, RAS-independent, luminescence, dose response (AID 1933); assay type: functional; settings: Homo sapiens
[27] = alpha-synuclein stem-loop luciferase translation blockers – H4 neuroglioma cells, luminescence, confirmation (AID 1988); assay type: functional, cell-based
[28] = Luminescence Cell-Based Dose Confirmation HTS to Identify Inhibitors of Platelet Dense Granule Release. [Related pubchem assays: 1663 (Primary HTS), 1678 (Summary of Project)]; assay type: functional
[29] = Luminescence Cell-Based Dose Response HTS to Identify Inhibitors of 5'UTR Stem-Loop Driven Prion Protein mRNA Translation in H4 Neuroglioblastoma Cells. [Related pubchem assays: 1827 (Project Summary), 1813 (Primary HTS)]; assay type: functional
HEK293 = assay: EBV LMP1 TES2 canonical NF-kB signalling blockers – cell-based, HEK293, luciferase, cherry-pick, dose response (AID 588343); assay type: functional; settings: Homo sapiens
[30] = toxicity toward HepG2 liver cells – cell-based, plate reader, cherry-pick, antagonist series, cytotoxicity control, dose response (AID 743416); assay type: functional
[31] = target: T5, Heat shock factor protein 1 (Mus musculus, UniProt P38532); assay: decrease of HSF1-responsive luciferase luminescence – cell-based, NIH3T3, dose retest, confirmation (AID 2382); assay type: functional;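 further: NIH3T3 fibroblasts with HSF1-driven luciferase reporter stressed by proteasome inhibitor MG132; luminescence from HSF1-driven luciferase expression after 8 hours of MG132 stress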
T5 sequence (P38532 whole entry): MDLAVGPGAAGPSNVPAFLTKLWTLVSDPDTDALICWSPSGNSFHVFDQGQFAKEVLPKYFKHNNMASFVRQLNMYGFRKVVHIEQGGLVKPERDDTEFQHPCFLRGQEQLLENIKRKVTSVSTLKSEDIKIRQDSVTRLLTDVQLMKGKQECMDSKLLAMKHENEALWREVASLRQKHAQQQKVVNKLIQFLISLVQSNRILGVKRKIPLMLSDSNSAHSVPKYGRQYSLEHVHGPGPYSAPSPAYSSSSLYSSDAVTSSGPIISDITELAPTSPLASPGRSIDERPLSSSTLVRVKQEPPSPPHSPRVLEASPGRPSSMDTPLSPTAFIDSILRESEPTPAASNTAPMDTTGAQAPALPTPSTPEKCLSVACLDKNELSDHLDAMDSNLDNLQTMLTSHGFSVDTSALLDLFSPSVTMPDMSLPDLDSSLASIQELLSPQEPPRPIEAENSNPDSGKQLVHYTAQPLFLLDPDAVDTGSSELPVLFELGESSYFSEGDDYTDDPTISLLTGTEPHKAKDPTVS

[32] = Luminescence-based counterscreen assay for KLF5 inhibitors: dose response cell-based high throughput screening assay to identify cytotoxic compounds using the IEC-6 intestinal epithelial cell line. [Related pubchem assays: 1700 (Primary screen.), 1834 (Confirmation screen.), 1858 (Summary AID.), 1905 (Counterscreen.)]; assay type: functional
[33] = target: Lytic switch protein BZLF1 (Epstein-Barr virus (strain B95-8) (HHV-4) (Human herpesvirus 4), UniProt P03206); assay: inhibition of BZLF1 ZTA DNA binding – biochemical, fluorescence polarization, Epstein-Barr virus, 1536-well, counter-screen for EBNA-1 inhibitor project, dose response (AID 2377); set-up: species or system human gammaherpesvirus 4;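 further: fluorescence polarization of Cy5-labelled ZRE DNA probe bound by purified Zta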
Cytochrome P450 2D6 = Cytochrome P450 2D6 (Homo sapiens, UniProt P10635);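 further: CYP2D6 member of a cytochrome P450 panel assay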
Cytochrome P450 2C9 = Cytochrome P450 2C9 (Homo sapiens, UniProt P11712)
[34] = target: Epstein-Barr nuclear antigen 1 (Epstein-Barr virus (strain B95-8) (HHV-4) (Human herpesvirus 4), UniProt P03211); assay: inhibition of EBV nuclear antigen 1 DNA binding – biochemical, fluorescence polarization, 1536-well, dose response (AID 2381); set-up: species or system human gammaherpesvirus 4;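 further: fluorescence polarization of a Cy5 DNA probe bound by EBNA-1 protein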

T1 sequence (P08659 whole entry): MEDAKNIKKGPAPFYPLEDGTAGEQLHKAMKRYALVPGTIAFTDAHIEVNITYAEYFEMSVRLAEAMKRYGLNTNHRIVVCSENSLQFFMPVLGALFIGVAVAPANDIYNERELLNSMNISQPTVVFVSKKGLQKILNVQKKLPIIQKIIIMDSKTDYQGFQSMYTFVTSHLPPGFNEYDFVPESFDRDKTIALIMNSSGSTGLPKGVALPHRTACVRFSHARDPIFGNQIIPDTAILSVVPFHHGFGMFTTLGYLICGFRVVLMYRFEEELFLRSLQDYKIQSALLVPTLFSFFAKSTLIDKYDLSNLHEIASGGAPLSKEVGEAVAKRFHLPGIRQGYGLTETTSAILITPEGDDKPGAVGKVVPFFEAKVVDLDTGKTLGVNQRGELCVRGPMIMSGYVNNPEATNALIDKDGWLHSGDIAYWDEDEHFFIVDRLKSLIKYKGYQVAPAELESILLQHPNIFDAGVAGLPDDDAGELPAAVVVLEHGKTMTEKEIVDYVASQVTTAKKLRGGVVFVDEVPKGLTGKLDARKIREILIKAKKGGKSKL
Chain of Cytochrome P450 2C9 (P11712 whole entry): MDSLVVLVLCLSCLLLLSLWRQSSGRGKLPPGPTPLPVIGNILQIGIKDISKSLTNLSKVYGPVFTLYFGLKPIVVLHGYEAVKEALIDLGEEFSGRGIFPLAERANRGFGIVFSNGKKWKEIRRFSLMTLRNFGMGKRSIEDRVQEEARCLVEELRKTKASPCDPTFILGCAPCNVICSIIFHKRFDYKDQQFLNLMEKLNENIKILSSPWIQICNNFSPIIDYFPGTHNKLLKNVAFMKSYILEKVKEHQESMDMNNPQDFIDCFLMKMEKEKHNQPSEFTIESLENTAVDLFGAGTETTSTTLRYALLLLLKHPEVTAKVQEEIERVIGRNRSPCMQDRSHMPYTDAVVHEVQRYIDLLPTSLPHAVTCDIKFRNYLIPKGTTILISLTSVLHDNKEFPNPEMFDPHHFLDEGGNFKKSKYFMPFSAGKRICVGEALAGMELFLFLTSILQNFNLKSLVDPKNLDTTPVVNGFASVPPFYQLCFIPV
Chain of Neuropeptide Y receptor type 2 (P49146 whole entry): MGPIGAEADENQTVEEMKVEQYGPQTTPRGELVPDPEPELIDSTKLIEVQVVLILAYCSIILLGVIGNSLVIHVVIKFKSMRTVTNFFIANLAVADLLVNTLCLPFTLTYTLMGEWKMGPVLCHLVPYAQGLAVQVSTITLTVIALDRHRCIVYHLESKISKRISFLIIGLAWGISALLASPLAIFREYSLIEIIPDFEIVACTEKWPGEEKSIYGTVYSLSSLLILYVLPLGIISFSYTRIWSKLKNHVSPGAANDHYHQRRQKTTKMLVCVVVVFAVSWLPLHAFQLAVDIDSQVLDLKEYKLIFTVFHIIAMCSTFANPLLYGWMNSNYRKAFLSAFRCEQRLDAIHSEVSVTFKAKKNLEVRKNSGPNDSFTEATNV
Chain of Cytochrome P450 2D6 (P10635 whole entry): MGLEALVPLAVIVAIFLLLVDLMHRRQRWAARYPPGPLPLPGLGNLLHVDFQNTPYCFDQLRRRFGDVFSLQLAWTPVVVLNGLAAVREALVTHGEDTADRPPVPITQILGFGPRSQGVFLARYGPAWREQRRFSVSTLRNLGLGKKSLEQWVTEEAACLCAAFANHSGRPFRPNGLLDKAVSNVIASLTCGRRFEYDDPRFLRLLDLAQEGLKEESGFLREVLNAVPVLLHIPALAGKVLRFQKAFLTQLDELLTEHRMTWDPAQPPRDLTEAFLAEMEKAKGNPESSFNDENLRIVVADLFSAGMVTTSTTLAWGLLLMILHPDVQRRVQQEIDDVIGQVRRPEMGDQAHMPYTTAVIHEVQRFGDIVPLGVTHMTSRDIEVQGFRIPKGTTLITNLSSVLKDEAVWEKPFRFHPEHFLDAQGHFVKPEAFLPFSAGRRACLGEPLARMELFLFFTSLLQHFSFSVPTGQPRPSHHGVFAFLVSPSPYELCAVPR
Chain of Neuropeptide Y receptor type 1 (P25929 whole entry): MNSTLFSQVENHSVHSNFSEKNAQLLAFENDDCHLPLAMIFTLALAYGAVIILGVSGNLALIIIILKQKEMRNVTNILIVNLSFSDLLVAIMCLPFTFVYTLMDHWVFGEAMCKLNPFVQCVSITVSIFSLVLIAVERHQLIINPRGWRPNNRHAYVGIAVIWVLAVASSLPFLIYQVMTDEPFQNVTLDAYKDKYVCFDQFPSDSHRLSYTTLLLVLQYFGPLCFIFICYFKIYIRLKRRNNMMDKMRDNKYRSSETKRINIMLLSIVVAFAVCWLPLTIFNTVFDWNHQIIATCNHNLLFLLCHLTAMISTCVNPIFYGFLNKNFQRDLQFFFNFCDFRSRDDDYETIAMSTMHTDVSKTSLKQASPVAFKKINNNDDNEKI
Chain of Peroxisome proliferator-activated receptor gamma/Nuclear receptor coactivator 2 (P37231 whole entry): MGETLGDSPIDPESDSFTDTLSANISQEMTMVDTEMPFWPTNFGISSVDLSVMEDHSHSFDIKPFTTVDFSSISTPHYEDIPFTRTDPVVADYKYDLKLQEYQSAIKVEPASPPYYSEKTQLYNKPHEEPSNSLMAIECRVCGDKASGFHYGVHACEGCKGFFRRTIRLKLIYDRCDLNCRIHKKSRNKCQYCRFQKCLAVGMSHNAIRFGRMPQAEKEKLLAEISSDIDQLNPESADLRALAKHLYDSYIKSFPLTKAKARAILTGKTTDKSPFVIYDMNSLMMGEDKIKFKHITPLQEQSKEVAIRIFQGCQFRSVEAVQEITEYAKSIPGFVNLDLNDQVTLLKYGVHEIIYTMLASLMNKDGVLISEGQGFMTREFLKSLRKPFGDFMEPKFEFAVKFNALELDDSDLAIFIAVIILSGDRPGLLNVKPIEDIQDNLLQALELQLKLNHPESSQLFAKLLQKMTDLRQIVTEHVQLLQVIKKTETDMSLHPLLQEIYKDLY
Chain of Peroxisome proliferator-activated receptor gamma/Nuclear receptor coactivator 2 (Q15596 whole entry, further chain): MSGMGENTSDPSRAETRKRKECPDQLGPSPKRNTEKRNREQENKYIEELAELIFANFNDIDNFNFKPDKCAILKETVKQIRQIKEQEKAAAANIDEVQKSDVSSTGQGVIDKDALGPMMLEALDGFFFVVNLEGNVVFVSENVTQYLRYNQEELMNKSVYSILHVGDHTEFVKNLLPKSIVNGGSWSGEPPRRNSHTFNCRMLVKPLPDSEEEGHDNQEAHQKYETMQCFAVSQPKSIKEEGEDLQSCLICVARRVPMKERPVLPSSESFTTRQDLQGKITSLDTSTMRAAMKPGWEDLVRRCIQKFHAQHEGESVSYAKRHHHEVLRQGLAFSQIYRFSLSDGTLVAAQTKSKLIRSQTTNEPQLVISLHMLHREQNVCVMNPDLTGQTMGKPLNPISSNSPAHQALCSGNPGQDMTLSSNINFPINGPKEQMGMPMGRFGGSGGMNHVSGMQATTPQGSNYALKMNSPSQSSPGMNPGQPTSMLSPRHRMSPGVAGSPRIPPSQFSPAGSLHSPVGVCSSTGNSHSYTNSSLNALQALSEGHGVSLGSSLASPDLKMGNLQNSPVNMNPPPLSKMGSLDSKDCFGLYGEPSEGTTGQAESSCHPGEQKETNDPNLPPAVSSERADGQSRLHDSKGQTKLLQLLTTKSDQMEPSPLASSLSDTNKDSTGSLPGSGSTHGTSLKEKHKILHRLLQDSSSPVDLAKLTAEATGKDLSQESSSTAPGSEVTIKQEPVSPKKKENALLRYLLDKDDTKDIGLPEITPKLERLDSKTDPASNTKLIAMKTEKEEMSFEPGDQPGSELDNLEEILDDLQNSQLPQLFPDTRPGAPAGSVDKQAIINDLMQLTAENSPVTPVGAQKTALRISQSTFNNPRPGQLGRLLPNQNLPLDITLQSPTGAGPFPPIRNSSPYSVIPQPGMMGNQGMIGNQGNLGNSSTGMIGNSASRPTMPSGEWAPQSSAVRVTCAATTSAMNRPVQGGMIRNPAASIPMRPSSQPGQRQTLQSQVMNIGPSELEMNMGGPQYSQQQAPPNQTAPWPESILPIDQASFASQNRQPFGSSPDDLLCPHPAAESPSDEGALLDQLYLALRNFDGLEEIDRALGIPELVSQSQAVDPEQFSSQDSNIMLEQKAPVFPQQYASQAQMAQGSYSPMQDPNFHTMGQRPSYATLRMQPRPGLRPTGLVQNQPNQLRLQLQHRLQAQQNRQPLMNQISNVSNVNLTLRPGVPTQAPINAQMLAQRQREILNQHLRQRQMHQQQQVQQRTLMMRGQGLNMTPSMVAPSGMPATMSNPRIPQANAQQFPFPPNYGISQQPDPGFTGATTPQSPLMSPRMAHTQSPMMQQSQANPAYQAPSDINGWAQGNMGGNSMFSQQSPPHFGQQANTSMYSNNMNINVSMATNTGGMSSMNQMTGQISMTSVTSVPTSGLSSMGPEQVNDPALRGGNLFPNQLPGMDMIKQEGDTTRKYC
Chain of Lytic switch protein BZLF1 (P03206 whole entry): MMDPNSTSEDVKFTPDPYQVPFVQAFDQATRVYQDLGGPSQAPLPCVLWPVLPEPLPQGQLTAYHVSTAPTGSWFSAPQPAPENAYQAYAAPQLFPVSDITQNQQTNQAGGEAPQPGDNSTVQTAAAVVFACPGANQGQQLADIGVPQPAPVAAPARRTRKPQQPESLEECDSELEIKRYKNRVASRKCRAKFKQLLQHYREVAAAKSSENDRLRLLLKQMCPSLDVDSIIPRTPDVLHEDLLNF

CCOc1ccc(C(=O)NCCc2ccccc2)cc1
AC50 [1]: > 52 µM (inactive) | EC50 [2]: 1.09 µM (active) | AC50 [3]: 3.43 µM (active) | AC50 [4]: 4.83 µM (active) | EC50 (HT-1080): > 50 µM (not active) | AC50 [5]: > 52 µM (inactive)

CC(C)(Oc1ccc(Cl)cc1)C(=O)NC1=NN(c2ccccc2)C(=O)C1
AC50 [6]: 3.91 µM (active) | IC50 [7]: 31.8 µM (active)

CCc1ccc2nc(SCC(=O)N3CC(=O)Nc4ccccc43)c(C#N)cc2c1
EC50 (Estrogen receptor): 32.9 µM (not active) | EC50 [8]: > 99 µM (inactive) | EC50 [9]: > 99 µM (inactive)

COc1cc(C(=O)NCCC(C)C)ccc1OCc1ccc(Cl)cc1Cl
EC50 [10]: > 79.4 µM (not active) | EC50 [11]: 4.43 µM (active) | EC50 [12]: 1.34 µM (active) | EC50 [13]: > 79.4 µM (inactive) | EC50 [14]: > 30 µM (not active) | EC50 [15]: 4.43 µM (inconclusive) | EC50 [16]: > 195 µM (not active) | EC50 [17]: > 79.4 µM (not active)

CC(C)(C)NC(=O)c1oc2ccccc2c1COc1ccccc1
IC50 [18]: > 35 µM (not active) | IC50 [19]: 18.9 µM (not active)

CCNC(S)=NNC(=O)c1cc(-c2ccc(OCC)cc2)nc2ccccc12
EC50 (BJ [20]): 3.3 µM (active) | AC50 [1]: > 52 µM (inactive) | EC50 [21]: < 0.088 µM (active) | EC50 (BJ [22]): > 133 µM (inactive) | EC50 [23]: > 67.5 µM (inactive) | EC50 (BJ [24]): > 150 µM (not active) | AC50 [3]: 4.32 µM (active) | EC50 [25]: 11.7 µM (active) | EC50 (BJ [26]): 8.23 µM (inconclusive) | EC50 [27]: 10.4 µM (active) | EC50 [28]: 1.08 µM (active) | EC50 [29]: 16.1 µM (active) | AC50 (HEK293): 1.7 µM (active) | AC50 [30]: 49.6 µM (active) | AC50 [4]: 3.19 µM (active) | EC50 [31]: 19 µM (active) | IC50 [32]: > 39.8 µM (not active)

COc1ccc(/C=C/C(=O)Oc2cccc(/C=N/NC(=O)COc3c(C)cccc3C)c2)cc1
IC50 [33]: > 111 µM (not active) | AC50 (Cytochrome P450 2D6): inconclusive | AC50 (Cytochrome P450 2C9): 3.55 µM (inconclusive) | IC50 [34]: 6.28 µM (active)
